Source: PubChem BioAssay (NCI)
Where “and” joins values, the source holds several entries; their conditions need not be identical. Identical values can stand only once.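 Cultured in 96-well plates, cells were exposed to test compound for 48 hours across five concentrations. GI50: concentration for 50% inhibition of growth. TGI is the concentration that stops growth completely.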

Assays:
Experiment in all cases: DTP human tumour cell line panel, 48 h
SK-MEL-5 melanoma = test system: SK-MEL-5 melanoma
A498 renal = test system: A498 renal
OVCAR-5 ovarian = test system: OVCAR-5 ovarian
HOP-62 NSCLC = test system: HOP-62 NSCLC
HT29 colon = test system: HT29 colon
BT-549 breast = test system: BT-549 breast
A549 NSCLC = test system: A549 NSCLC
MDA-MB-231 breast = test system: MDA-MB-231 breast
HOP-92 NSCLC = test system: HOP-92 NSCLC
CAKI-1 renal = test system: CAKI-1 renal

Structure (SMILES)	TGI (SK-MEL-5 melanoma)	TGI (A498 renal)	TGI (OVCAR-5 ovarian)	TGI (HOP-62 NSCLC)	TGI (HT29 colon)	TGI (BT-549 breast)	TGI (A549 NSCLC)	TGI (MDA-MB-231 breast)	TGI (HOP-92 NSCLC)	TGI (CAKI-1 renal)	GI50 (SK-MEL-5 melanoma)	GI50 (HOP-62 NSCLC)	GI50 (HT29 colon)	GI50 (BT-549 breast)	GI50 (MDA-MB-231 breast)	GI50 (HOP-92 NSCLC)	GI50 (CAKI-1 renal)
[N-]=[N+]=NC1(c2ccccc2)C(=O)Nc2ccccc2C1=O (configuration not stated)	33.1 µM	43.4 µM	> 100 µM	> 100 µM	> 100 µM	34.8 µM	> 100 µM	> 100 µM	84.5 µM	> 100 µM							
CCCCCCCCCCCCCCCCP(=O)(O)OP(=O)(O)OCC1OC(n2ccc(N)nc2=O)C(O)C1O (configuration not stated)	> 100 µM and 34.3 µM	> 47.9 µM	65.3 µM and > 64.4 µM	97.3 µM and 44.6 µM	> 100 µM	> 100 µM	> 100 µM	> 100 µM	> 100 µM and 67.4 µM	> 100 µM	> 100 µM and 11.2 µM	31.5 µM and 4.41 µM	> 100 µM and 19.9 µM	> 100 µM and 24.3 µM	> 100 µM and 37.9 µM	65.3 µM and 17.6 µM	75.8 µM and 11.9 µM
O=C1/C(=C/c2cccc(Oc3ccccc3)c2)N=C(c2ccccc2)N1c1nc2ccc(Sc3ccccc3)cc2[nH]1	75.3 µM	81.2 µM	> 100 µM	> 100 µM	63.2 µM	55 µM	> 100 µM	49.9 µM	> 100 µM	> 100 µM							
